Measured values published in US20220162229A1, “HETEROCYCLIC COMPOUNDS AND USES THEREOF” (Nuvation Bio Inc., priority 2019, published 2022).
Read-outs that look alike come from different tables or passages of the source.

Experiments:
WEE1 kinase enzyme = biological target: T1, WEE1 kinase enzyme (Homo sapiens, UniProt P30291); experiment: WEE1 IC50 determination, LanthaScreen Terbium Labeled TR-FRET kinase assay; assay type: biochemical; settings: WEE1 enzyme 1 nM, ATP 10 μM, 1 h
T1 construct: purchased Invitrogen, Life Technologies, Grand Island, N.Y. PR7373A
Description: IC50 values of compounds against WEE1 kinase enzyme were determined by LanthaScreen™ Terbium Labeled TR-FRET assay. Kinase assays were performed in 1× kinase buffer (#PV6135, Invitrogen, Life Technologies, Grand Island, N.Y.) where total reaction volume is 10 μL in low-volume 384-well plates (#4511, Corning). Serially diluted compounds (3-fold) were incubated with WEE1 Enzyme (1 nM) (#PR7373A, Invitrogen, Life Technologies, Grand Island, N.Y.) for 10 min; a mixture of ATP (10 μM) (#A1852, Sigma, St. Louis, Mo.) and fluorescent-PolyGT substrate (200 nM) (#PV3610, Invitrogen, Life Technologies, Grand Island, N.Y.) was added and incubated in dark at room temperature for 1 h. After 1 h, 10 μL stop solution containing terbium labeled antibody (4 nM) (#PV3529, Invitrogen, Life Technologies, Grand Island, N.Y.) and EDTA (#E5134, Sigma, St. Louis, Mo.) (20 mM) in TR-FRET dilution buffer (#PV3574, Invitrogen, Life Technologies, Grand Island, N.Y.) was added. Readings were taken in a Synergy Neo plate reader (BioTek, Winooski, Vt.) at single excitation of 340 nm and dual emission at 495 nm and 520 nm respectively.
The % activity of test samples was calculated as (Sample−Min)*100/(Max−Min). [Max: DMSO control, complete reaction with enzyme & DMSO and Min: No enzyme & DMSO]. […]

U-87 MG = experiment: Cytotoxicity assay (resazurin) in U-87 MG cell line; assay type: cell-based; settings: Homo sapiens, read-out: U-87 MG IC50
Description: (§1) A427 (HTB-53; ATCC), a lung epithelial cell line, was seeded in medium (MEM, 41090101; Gibco) at a cell count of 1500 cells per 100 μL per well in a 96 well edge plate (167425; ThermoFisher). Cells were allowed to grow at 37° C. for 24 hr in 5% CO2 environment (culture conditions) in a Nuaire incubator (humidified). Serially diluted test compounds (100 μL) within the desired testing concentration ranges were added to the culture plate and the cells further incubated in culture conditions for 72 hr. The experiment was terminated at the designated incubation time by replacing the medium with 100 μL of 1 mM of resazurin (R7017; Sigma) prepared in culture medium, and the plates were further incubated in culture conditions for 4-6 hr. Fluorescence was recorded using a multimodal plate reader (Biotek Synergy Neo) at an excitation wavelength of 535 nm and emission wavelength of 590 nm to obtain relative fluorescence units. Data were analysed as follows: the background fluorescence (blank containing only medium) value was subtracted from each reading and normalized with the vehicle control (DMSO treated cells) to obtain percent survival/proliferation. […] Potency of compounds in other cell lines (such as A549, As-Pc-1, Panc 10.05, A172, U-87 MG) may be determined in an analogous manner.

As-Pc-1 = experiment: Cytotoxicity assay (resazurin) in As-Pc-1 cell line; assay type: cell-based; settings: Homo sapiens, read-out: As-Pc-1 IC50
Description: as §1

T1 sequence (P30291 whole entry): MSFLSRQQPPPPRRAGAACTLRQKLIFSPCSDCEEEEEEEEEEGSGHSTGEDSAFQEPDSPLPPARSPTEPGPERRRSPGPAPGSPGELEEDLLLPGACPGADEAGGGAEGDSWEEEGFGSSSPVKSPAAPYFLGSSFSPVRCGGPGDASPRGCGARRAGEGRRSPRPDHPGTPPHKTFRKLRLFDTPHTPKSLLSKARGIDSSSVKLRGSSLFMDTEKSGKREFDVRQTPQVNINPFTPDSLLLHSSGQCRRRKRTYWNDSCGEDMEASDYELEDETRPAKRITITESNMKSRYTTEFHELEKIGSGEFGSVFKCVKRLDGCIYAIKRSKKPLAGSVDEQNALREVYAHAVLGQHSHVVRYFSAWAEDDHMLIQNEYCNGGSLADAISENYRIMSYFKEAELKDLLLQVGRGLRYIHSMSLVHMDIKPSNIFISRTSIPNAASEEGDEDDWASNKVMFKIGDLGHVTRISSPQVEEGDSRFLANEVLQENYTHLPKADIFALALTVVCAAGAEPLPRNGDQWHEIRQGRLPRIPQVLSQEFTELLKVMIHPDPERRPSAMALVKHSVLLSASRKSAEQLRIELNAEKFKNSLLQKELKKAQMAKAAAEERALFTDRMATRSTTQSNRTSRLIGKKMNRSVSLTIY

SMILES | IC50 (WEE1 kinase enzyme) [µM] | IC50 (U-87 MG; U-87 MG, 72 h) [µM] | IC50 (As-Pc-1; ASPC1, 72 h) [µM] | IC50 (U-87 MG; U-87 MG cells, 72 hr incubation, inhibition of proliferation) [µM] | IC50 (As-Pc-1; ASPC1, As-Pc-1 cells, 72 hr incubation, inhibition of proliferation) [µM]
CC1Oc2nc(Nc3ccc4c(c3)CNCC4)ncc2C(=O)N1c1c(Cl)cccc1Cl (stereo not drawn) [1.44, 3-(2,6-dichlorophenyl)-2-methyl-7-((1,2,3,4-tetrahydroisoquinolin-7-yl)amino)-2,3-dihydro-4H-pyrimido[5,4-e][1,3]oxazin-4-one] | 0.133 | 11.4 | 19.5 | – | –
CC1Oc2nc(Nc3ccc4c(c3)CCNC4(C)C)ncc2C(=O)N1c1c(Cl)cccc1Cl (stereo not drawn) [1.4, 3-(2,6-dichlorophenyl)-7-((1,1-dimethyl-1,2,3,4-tetrahydroisoquinolin-6-yl)amino)-2-methyl-2,3-dihydro-4H-pyrimido[5,4-e][1,3]oxazin-4-one] | 0.127 | – | – | 10.9 | 8.5
